Reference: patent US9937192B2, “Combination therapy to treat mycobacterium diseases” (priority 2012, dated 2018)
Counter-ions that a name gives are not always drawn. Like-named read-outs stand apart in the source and are kept apart here.

Assays:
M. kansasii = experiment: MIC in bacterial broth culture (7H9 with ADC, visual or resazurin); type: cell-based; details: Mycobacterium kansasii, Table 31; M. kansasii 303; duplicate values
[1] = system: nonreplicating M. tuberculosis; experiment: Low-Oxygen-Recovery Assay (LORA) MIC; type: cell-based; details: Mycobacterium tuberculosis, read-out: LORA MIC
Source text: MIC Determination in the Low-Oxygen-Recovery Assay (LORA) for Nonreplicating M. tuberculosis
Screening for new antimicrobial agents is routinely conducted only against actively replicating bacteria. However, it is now widely accepted that a physiological state of non-replicating persistence (NRP) is responsible for antimicrobial tolerance in many bacterial infections. In tuberculosis, the key to shortening the 6-month regimen lies in targeting this NRP subpopulation. […] Cho S H, Want S, Wan B, Hwang C H, Pauli G F, Franzblau S G; “Low-Oxygen-Recovery Assay for High-Throughput Screening of Compounds against Nonreplicating Mycobacterium tuberculosis” Antimicrob Agents Chemother. 2007 April; 51(4): 1380-1385 doi: 10.1128/AAC.00055-06.

M. tuberculosis Erdman = experiment: MBC assay, log killing reduction in CFU over a one month period of incubation (Table 35); type: cell-based; details: for Log Reduction (cfu): Compound 23A at 4×MIC
M. smegmatis = experiment: MIC in bacterial broth culture (7H9 with ADC, visual or resazurin); type: cell-based; details: Mycolicibacterium smegmatis, Table 31
M. avium = experiment: as above; type: cell-based; details: Table 31, duplicate values
[2] = Seven-Day Oral (Gavage) Toxicity and Toxicokinetics Study in Rats; type: in vivo, Crl:CD(SD) rats; details: male rats
Source text: Seven-Day Oral (Gavage) Toxicity and Toxicokinetics Study in Rats
Crl:CD(SD) rats were obtained from Charles River Laboratories of Stone Ridge, N.Y. The animals were laboratory bred and experimentally naïve. Rats were chosen because they are a species that is commonly used for nonclinical toxicity evaluations.
Animals received the test article or vehicle by oral gavage for 7 consecutive days and were terminated the day following completion of dosing. The first day of dosing was designated as Day 1 of the study. The animals were evaluated for changes in clinical signs, body weight, and other parameters as described below.
The vehicle and test article were administered by oral gavage once daily for 7 consecutive days at a dose volume of 10 mL/kg body weight for Group A and Groups B-D, respectively. The test article and vehicle were administered by oral gavage twice daily, approximately 8 hours apart, for 7 consecutive days at a dose volume of 10 mL/kg body weight for Group E and Group F, respectively. The actual volume administered to each animal was calculated and adjusted based on the most recent body weight of each animal.
During the treatment period, daily cageside observations were made and recorded predose and postdose (following the first dose only). The postdosing observations made during treatment occurred at the following times based on Cmax/Tmax for the two compounds from previous studies:
Prior to start of dosing, body weights were measured for randomization on Day 1. During the treatment, body weights were measured on Day 1 and Day 7. In addition, fasted body weights were measured prior to necropsy for calculation of organ/body weight ratios.
Throughout the study, food consumption was measured daily starting 3 days prior to start of dosing.
Blood samples for evaluation of hematology, coagulation, and serum chemistry parameters were collected from all animals from the retro-orbital plexus (under CO2/O2 anesthesia, for the main study animals) or jugular vein cannula (for the toxicokinetic animals) prior to necropsy. Due to residual heparin used to keep the cannulas patent for the toxicokinetic animals, coagulation samples from these rats, were not able to be analyzed. The animals were fasted overnight prior to blood collection. On the day of blood collection for clinical pathology analyses, the animals were not necropsied until after the blood was collected and the samples judged to be acceptable by the clinical pathology group.
On the 1st and 7th day of dosing, blood samples (approximately 0.5 mL/sample) were collected from the jugular vein cannula for all toxicokinetic animals at the timepoints listed below into K3EDTA-containing tubes. […] Prior to each collection, a small sample of blood (with heparin blocking solution) was removed from the cannula and discarded. A new syringe was placed on the cannula, and the protocol-required sample was taken. The syringe with the blood sample was removed, and a new syringe with saline attached to the cannula. Blood volume was replaced with an equal volume of saline and then blocking solution placed in the cannula. Each animal was returned to its cage until the next collection timepoint.
For all animals euthanized at scheduled necropsies, the kidneys, liver, and prostate gland were weighed. Following weighing, an approximate 1 gram sample of liver and kidney was weighed, transferred to Precellys 7 mL CK28 Tissue Homogenizing tubes (Cat. No. 0904-01), snap-frozen, and analyzed.
For all animals scheduled for the terminal necropsy, the kidneys, liver, and prostate were embedded in paraffin, sectioned and stained with hematoxylin and eosin for further examination by light microscopy. For Groups A, D, E, and F only, the remaining tissues listed above were embedded in paraffin, sectioned and stained with hematoxylin and eosin for further examination by light microscopy. […]

[3] = system: Non-Replicating (NRP) M. tuberculosis H37Ra; experiment: Non-replicating (NRP) M. tuberculosis H37Ra (luciferase) culture assay; type: cell-based; details: Mycobacterium tuberculosis, 336 h, read on day 14
[4] = system: intracellular M. tuberculosis in THP-1 cells; experiment: microbe, parasite or virus in culture; type: cell-based; details: Mycobacterium tuberculosis, H37RA
[5] = system: intracellular M. tuberculosis in J774 cells; experiment: Efficacy against intracellular M. tuberculosis (luciferase) in J774 cells; type: cell-based; details: Mycobacterium tuberculosis, J774, 120 h
M. tuberculosis H37Rv = experiment: Minimum bactericidal concentration (MBC) assay; type: cell-based; details: for Log Reduction: vs untreated control
[6] = 300 mg/kg twice a day vs controls treated twice a day

Q: For `CCNC(=O)Nc1nc2cc(-c3cnc(C(C)(C)O)nc3)c(F)c([C@H]3CCCO3)c2[nH]1` [Compound 23A, methanesulfonic acid salt of 1-ethyl-3-[6-fluoro-5-[2-(1-hydroxy-1-methyl-ethyl)pyrimidin-5-yl]-7-[(2R)-tetrahydrofuran-2-yl]-1H-benzimidazol-2-yl]urea], which MIC (M. kansasii) is on record?
A: Its MIC is 0.03 µg/mL.

Q: And the MIC [1]?
A: Its MIC is 0.25 µg/mL.

Q: What about the “killing kinetics (log reduction in CFU)” value (M. tuberculosis Erdman; 4×MIC, one month period of incubation) of the same compound?
A: Its value is “slow killing kinetics”.

Q: And the “Log Reduction (cfu)” value (M. tuberculosis Erdman; day 0 of incubation)?
A: The value was 0 Log.

Q: What about the “Log Reduction (cfu)” value (M. tuberculosis Erdman; day 1 of incubation) of the same compound?
A: The value was 0.2 Log.

Q: And the “Log Reduction (cfu)” value (M. tuberculosis Erdman; day 2 of incubation)?
A: Its value is 0.2 Log.

Q: What about the “Log Reduction (cfu)” value (M. tuberculosis Erdman; day 3 of incubation) of the same compound?
A: The value was 1.0 Log.

Q: And the “Log Reduction (cfu)” value (M. tuberculosis Erdman; day 7 of incubation)?
A: Its value is 1.9 Log.

Q: And the “Log Reduction (cfu)” value (M. tuberculosis Erdman; day 14 of incubation)?
A: Its value is 1.9 Log.

Q: What about the “Log Reduction (cfu)” value (M. tuberculosis Erdman; day 21 of incubation) of the same compound?
A: Its value is 2.2 Log.

Q: And the “Log Reduction (cfu)” value (M. tuberculosis Erdman; day 28 of incubation)?
A: Its value is 3.0 Log.

Q: What about the MIC (M. smegmatis) of the same compound?
A: Its MIC is 6.25 µg/mL.

Q: What about the MIC (M. avium; Mycobacterium avium, M. avium 103, read-out: MIC) of the same compound?
A: Its MIC is 0.12 µg/mL.

Q: What about the MIC (M. avium; Mycobacterium avium, M. avium 3404.4, read-out: MIC) of the same compound?
A: Its MIC is 0.23 µg/mL.

Q: And the MIC (M. avium; Mycobacterium avium, M. avium Far, read-out: MIC)?
A: The MIC was 0.23 µg/mL.

Q: What about the MIC (M. avium; M. avium 103) of the same compound?
A: The MIC was 0.23 µg/mL.

Q: What about the AST [2, 6] of the same compound?
A: Its AST is “statistically higher”.

Q: What about the “mean ALT” value [2, 6] of the same compound?
A: Its value is “statistically higher”.

Q: What about the “mean calcium ion concentration (CA)” value [2, 6] of the same compound?
A: The value was “statistically lower”.

Q: What about the “dose levels at which no adverse toxicity was demonstrated” value ([2]; 7 days oral gavage) of the same compound?
A: Its value is at most 600 mg/kg/day.

Q: What about the “adverse observations or effects on mean body weight” value ([2]; 7 days oral gavage, all dose groups) of the same compound?
A: Its value is “No adverse observations or effects on mean body weight”.

Q: And the histopathological findings ([2]; any dose regimen)?
A: Its histopathological findings is “No test article-related histopathological findings”.

Q: What about the “NOEL (No-Observable-Effect-Level)” value ([2]; once a day for 7 days orally via gavage) of the same compound?
A: Its value is 100 mg/kg.

Q: What about the “exposures for different dosage levels” value ([2]; toxicokinetics) of the same compound?
A: Its value is “dose related”.

Q: And the Mean food consumption ([2]; twice daily 300 mg/kg, not considered adverse)?
A: Its Mean food consumption is “reduced”.

Q: What about the IC50 [3] of the same compound?
A: The IC50 was 1 µg/mL.

Q: What about the IC50 ([4]; THP-1, 120 h, read-out: Mtb H37Ra in THP1 Cells (IC50)) of the same compound?
A: Its IC50 is 0.03 µg/mL.

Q: And the MIC ([4]; read-out: MIC, Macrophage Cells)?
A: Its MIC is 0.03 µg/mL.

Q: And the IC50 ([5]; ERDMAN, read-out: Mtb Erdman in J774 Cells (IC50))?
A: The IC50 was under 0.17 µg/mL.

Q: And the IC50 ([5]; H37RV, read-out: Mtb H37Rv in J774 Cells (IC50))?
A: The IC50 was 0.21 µg/mL.

Q: What about the IC50 ([5]; read-out: Mtb CDC1551 in J774 Cells (IC50)) of the same compound?
A: Its IC50 is 0.12 µg/mL.

Q: And the Log cfu (M. tuberculosis H37Rv; 0.039 ug/mL)?
A: Its Log cfu is 5.36.

Q: What about the “Log Reduction” value (M. tuberculosis H37Rv; 0.039 ug/mL) of the same compound?
A: Its value is 0.77.

Q: What about the Log cfu (M. tuberculosis H37Rv; 0.078 ug/mL) of the same compound?
A: Its Log cfu is 3.75.

Q: And the “Log Reduction” value (M. tuberculosis H37Rv; 0.078 ug/mL)?
A: The value was 2.38.

Q: And the Log cfu (M. tuberculosis H37Rv; 0.156 ug/mL)?
A: The Log cfu was 1.04.

Q: And the “Log Reduction” value (M. tuberculosis H37Rv; 0.156 ug/mL)?
A: The value was 5.09.

Q: And the Log cfu (M. tuberculosis H37Rv; 0.312 ug/mL)?
A: Its Log cfu is 1.32.

Q: What about the “Log Reduction” value (M. tuberculosis H37Rv; 0.312 ug/mL) of the same compound?
A: The value was 4.81.

Q: What about the Log cfu (M. tuberculosis H37Rv; 0.625 ug/mL) of the same compound?
A: Its Log cfu is 1.04.

Q: And the “Log Reduction” value (M. tuberculosis H37Rv; 0.625 ug/mL)?
A: Its value is 5.09.
